{
  "source": "patent US20210235692A1",
  "about": "“Stable 1-Methylcyclopropene Compositions and Uses Thereof” (Fresh Inset S.A., priority 2020, published 2021)",
  "assay": "Percentage of dimers by gas chromatography over time, 1-MCP/butane 1:1 and negative control",
  "assay_type": "physicochemical",
  "text": "1-MCP and butane was mixed in liquid form in 1:1 ratio (v/v). Then, the mixture was transferred into the glass container.\nTable 18 and FIG. 11 (plot line with circular data points) show the percentage of dimers in the composition as measured by gas chromatography at various points over time. The dotted line is a trend line that extrapolates the 1-MCP/butane plot. A negative control containing only 1-MCP was used for comparison. Table 19 and FIG. 11 (plot line with square data points) show the percentage of dimers in the negative control as measured by gas chromatography at the same points over time that the composition was measured.",
  "data": [
    {"smiles": "CC1=CC1", "note": "[negative control, 1-methylcyclopropene]", "values": [
      {"measurement": "% of dimer", "setting": "time 1 h", "result": 0.229, "unit": "%"},
      {"measurement": "% of dimer", "setting": "time 3.75 h", "result": 0.401, "unit": "%"},
      {"measurement": "% of dimer", "setting": "time 25.75 h", "result": 4.013, "unit": "%"},
      {"measurement": "% of dimer", "setting": "time 123.5 h", "result": 49.588, "unit": "%"}
    ]}
  ]
}
